Reference: patent publication US20260166046A1, “Inhibitors of methionine aminopeptidase-2 and methods of preparation and uses thereof” (Primetime Life Sciences LLC, priority 2022, published 2026)
Where two headings read alike, the source gives them in different places.

Tests used:
[1] = tested on: G. lamblia GS; test: Trophozoite viability IC50 determination, Giardia assay (ATPLite); assay type: cell-based; settings: Giardia duodenalis, read-out: Cell viability values Mean IC50 (nM) G. lamblia GS
Procedure: (§1) Giardia cultures: Trophozoites of G. lamblia isolates WB and GS were grown anaerobically in borosilicate glass screw-cap culture tubes (Fisher Scientific) at pH 7.0 in modified TYI-S-33 medium. The medium was supplemented with 10% heat-inactivated bovine serum (Sigma-Aldrich) and 0.05% bovine bile (Sigma-Aldrich). To attain low-oxygen-tension conditions, the tubes were filled to 85 to 90% of their total volume capacity and incubated without shaking at 37° C. Subcultures (2×10^5 trophozoites per tube) were made three times a week. Detachment of trophozoites for inoculation was achieved by chilling the cultures on ice for 20 min. Culturing and detachment of Metronidazole-resistant G. lamblia Assemblage A 713M3 and assemblage B 1279-M1 trophozoites followed the same protocol, except that the growth medium was supplemented with metronidazole gradually increasing the concentration to 10 μM. Amebae cultures: E. histolytica strain HM1:IMSS trophozoites were grown at 37° C. in TYI-S-33 medium supplemented with penicillin (100 U/mL) and streptomycin sulfate (100 μg/mL). Trophozoites were grown anaerobically in borosilicate tubes and subcultures were made 1-2 times a week. Trophozoites were detached for inoculation by chilling the cultures on ice for 20 minutes.
(§2) Trophozoite viability IC50determination
(§3) Giardia assays: 10 μL giardia trophozoites in growth medium were plated at a density of 10,000 cells/well in sterile 96-well black clear bottom assay plates. Fumagillin and fumagillol derivatives were 1:3 serially diluted from a 1 μM DMSO stock solution and then 100 μL/well were transferred in duplicate to the assay wells. Metronidazole (control) was 1:3 serially diluted in growth medium from a 100 μM stock solution in DMSO. The assay plates were placed in a BD GasPak™ EZ Container System (BD Diagnostics) to create an anaerobic growth environment. The sealed containers were incubated at 37° C. for 72 hr. Following incubation, 70 μL/well of the ATPLite reagent (PerkinElmer) was added to the assay plates for one-step lysis and ATP level detection. The luminescent signals of the assay plates were measured on an EnSpire 2300 plate reader (PerkinElmer). Concentration response titration points for each compound were fitted to a 4-parameters logistic nonlinear regression model using KaleidaGraph, yielding the IC50value and standard error (SE).

[2] = tested on: G. lamblia WB; test: as above; assay type: cell-based; settings: Giardia duodenalis, read-out: Cell viability values Mean IC50 (nM) G. lamblia WB
Procedure: as §1, §2, §3

[3] = molecular target: T1, Recombinant human MetAP2 (Homo sapiens, UniProt P50579); test: MetAP2 fluorescence assay; assay type: biochemical; settings: recombinant human MetAP2, H-Met-Gly-Pro-AMC substrate
T1 construct: purchased Bio-Techne/R&D systems
Procedure: MetAP2 Fluorescence Assay
Recombinant human MetAP2 (Bio-Techne/R&D systems) was diluted to 10 μg/mL in the assay buffer (50 mM HEPES, 0.1 mM CoCl2, 100 mM NaCl, pH 7.5). The substrate, H-Met-Gly-Pro-AMC (Bio-Techne/R&D systems), was diluted to 500 μM with 2 μg/mL of the coupling enzyme, recombinant human dipeptidyl peptidase-4 (Bio-Techne/R&D systems), in assay buffer. 50 μL of 10 μg/mL recombinant human METAP2 were loaded into a flat-bottom black 96-well plate (Greiner Bio), and the reaction was initiated by adding 50 μL of the substrate/dipeptidyl peptidase-4 mixture. The reaction mixture was incubated at room temperature for 10 minutes, and the fluorescence was measured for 5 minutes at excitation and emission wavelengths of 380 nm and 460 nm, respectively, in kinetic mode. For IC50determination, 0.5 μL inhibitor solution was added to the reaction mixture. The reaction rates were used to calculate IC50with KaleidaGraph.

[4] = tested on: E. histolytica HM1: IMSS; test: Trophozoite viability IC50 determination, Amebae assay (ATPLite); assay type: cell-based; settings: Entamoeba histolytica, read-out: Cell viability values Mean IC50 (nM) E. histolytica HM1: IMSS
Procedure: as §1, §2, §3
Amebae assays: The protocol is identical to that described above except that the trophozoites were plated at a density of 5000 cells/well because of their larger size.

[5] = trophozoites, 72 hr, anaerobic, ATP level

T1 sequence (P50579 whole entry): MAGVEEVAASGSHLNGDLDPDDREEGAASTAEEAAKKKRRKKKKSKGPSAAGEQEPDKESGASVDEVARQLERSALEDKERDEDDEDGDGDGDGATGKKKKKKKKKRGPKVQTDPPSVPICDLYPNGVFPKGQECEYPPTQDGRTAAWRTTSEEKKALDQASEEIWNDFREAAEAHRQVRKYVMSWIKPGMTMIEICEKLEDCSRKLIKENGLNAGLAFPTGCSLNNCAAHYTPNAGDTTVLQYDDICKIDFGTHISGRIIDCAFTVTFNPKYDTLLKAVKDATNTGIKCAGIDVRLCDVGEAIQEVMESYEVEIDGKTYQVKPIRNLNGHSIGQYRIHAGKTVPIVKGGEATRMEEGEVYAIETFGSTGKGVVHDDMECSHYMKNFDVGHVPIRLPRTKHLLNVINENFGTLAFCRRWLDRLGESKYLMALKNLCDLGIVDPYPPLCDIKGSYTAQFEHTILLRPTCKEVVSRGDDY

Compound	IC50 ([1]; 72 h)	IC50 ([2]; 72 h)	IC50 [3]	IC50 ([4]; 72 h)	IC50 [1, 5]	IC50 [2, 5]	IC50 [4, 5]
CO[C@@H]1[C@H](OC(=O)Nc2cc(C#N)cc(B(O)O)c2)CC[C@]2(CO2)[C@H]1[C@@]1(C)O[C@@H]1CC=C(C)C [No 25]	101 to 1000 nM	101 to 1000 nM	< 10 nM	> 1000 nM			
CO[C@@H]1[C@H](OC(=O)Nc2cc(C)cc(B(O)O)c2)CC[C@]2(CO2)[C@H]1[C@@]1(C)O[C@@H]1CC=C(C)C [No 28]	10.1 to 100 nM	101 to 1000 nM	< 10 nM	101 to 1000 nM			
CO[C@@H]1[C@H](OC(=O)NCc2cccc(B(O)O)c2)CC[C@]2(CO2)[C@H]1[C@@]1(C)O[C@@H]1CC=C(C)C [No 29]	101 to 1000 nM	101 to 1000 nM	< 10 nM	101 to 1000 nM			
CO[C@@H]1[C@H](OC(=O)NCc2ccc(B(O)O)cc2)CC[C@]2(CO2)[C@H]1[C@@]1(C)O[C@@H]1CC=C(C)C [No 30]	101 to 1000 nM	101 to 1000 nM	< 10 nM	101 to 1000 nM			
CO[C@@H]1[C@H](OC(=O)NCc2cc(F)ccc2B(O)O)CC[C@]2(CO2)[C@H]1[C@@]1(C)O[C@@H]1CC=C(C)C [No 31]	101 to 1000 nM	101 to 1000 nM	< 10 nM	> 1000 nM			
CO[C@@H]1[C@H](OC(=O)Nc2cc(B(O)O)cc([N+](=O)[O-])c2)CC[C@]2(CO2)[C@H]1[C@@]1(C)O[C@@H]1CC=C(C)C [No 33]	101 to 1000 nM	> 1000 nM	< 10 nM	> 1000 nM			
CO[C@@H]1[C@H](OC(=O)Nc2ccc(F)c(F)c2B(O)O)CC[C@]2(CO2)[C@H]1[C@@]1(C)O[C@@H]1CC=C(C)C [No 34]			< 10 nM		101 to 1000 nM	> 1000 nM	> 1000 nM
CO[C@@H]1[C@H](OC(=O)Nc2c(F)cccc2B(O)O)CC[C@]2(CO2)[C@H]1[C@@]1(C)O[C@@H]1CC=C(C)C [No 35]			< 10 nM		101 to 1000 nM	> 1000 nM	> 1000 nM
CO[C@@H]1[C@H](OC(=O)Nc2ccncc2B(O)O)CC[C@]2(CO2)[C@H]1[C@@]1(C)O[C@@H]1CC=C(C)C [No 37]	10.1 to 100 nM	> 1000 nM	< 10 nM	> 1000 nM			
CO[C@@H]1[C@H](OC(=O)Nc2ccc3sc(B(O)O)cc3c2)CC[C@]2(CO2)[C@H]1[C@@]1(C)O[C@@H]1CC=C(C)C [No 38]	> 1000 nM	> 1000 nM	< 10 nM	> 1000 nM			
CO[C@@H]1[C@H](OC(=O)Nc2csc(B(O)O)c2)CC[C@]2(CO2)[C@H]1[C@@]1(C)O[C@@H]1CC=C(C)C [No 40]	101 to 1000 nM	> 1000 nM	< 10 nM	> 1000 nM			
CO[C@@H]1[C@H](OC(=O)N2CCc3cc(B(O)O)cnc3C2)CC[C@]2(CO2)[C@H]1[C@@]1(C)O[C@@H]1CC=C(C)C [No 41]	10.1 to 100 nM	101 to 1000 nM	< 10 nM	> 1000 nM			
CO[C@@H]1[C@H](OC(=O)NCc2c(F)cc(B(O)O)cc2F)CC[C@]2(CO2)[C@H]1[C@@]1(C)O[C@@H]1CC=C(C)C [No 43]	101 to 1000 nM	> 1000 nM	< 10 nM	> 1000 nM			
CO[C@@H]1[C@H](OC(=O)N2CCc3cc(B(O)O)ccc3C2)CC[C@]2(CO2)[C@H]1[C@@]1(C)O[C@@H]1CC=C(C)C [No 44]	10.1 to 100 nM	> 1000 nM	< 10 nM	> 1000 nM			
CO[C@@H]1[C@H](OC(=O)Nc2cccc(B(O)O)c2Cl)CC[C@]2(CO2)[C@H]1[C@@]1(C)O[C@@H]1CC=C(C)C [No 45]	101 to 1000 nM	> 1000 nM	< 10 nM	> 1000 nM			
CO[C@@H]1[C@H](OC(=O)Nc2c(B(O)O)ccnc2Cl)CC[C@]2(CO2)[C@H]1[C@@]1(C)O[C@@H]1CC=C(C)C [No 47]	101 to 1000 nM	> 1000 nM	< 10 nM	> 1000 nM			
CO[C@@H]1[C@H](OC(=O)NC(CF)c2ccc(B(O)O)cc2)CC[C@]2(CO2)[C@H]1[C@@]1(C)O[C@@H]1CC=C(C)C (stereo partly drawn) [No 48]	101 to 1000 nM	> 1000 nM	< 10 nM	> 1000 nM			
CO[C@@H]1[C@H](OC(=O)Nc2cc(B(O)O)c3occc3c2)CC[C@]2(CO2)[C@H]1[C@@]1(C)O[C@@H]1CC=C(C)C [No 49]	10.1 to 100 nM	101 to 1000 nM	< 10 nM	> 1000 nM			
CO[C@@H]1[C@H](OC(=O)Nc2cc(B(O)O)cc(F)n2)CC[C@]2(CO2)[C@H]1[C@@]1(C)O[C@@H]1CC=C(C)C [No 50]	10.1 to 100 nM	> 1000 nM	< 10 nM	> 1000 nM			
CO[C@@H]1[C@H](OC(=O)N2CCOc3c(B(O)O)cccc32)CC[C@]2(CO2)[C@H]1[C@@]1(C)O[C@@H]1CC=C(C)C [No 51]	< 10 nM	101 to 1000 nM	< 10 nM	101 to 1000 nM			
CO[C@@H]1[C@H](OC(=O)N2CCC(B(O)O)CC2)CC[C@]2(CO2)[C@H]1[C@@]1(C)O[C@@H]1CC=C(C)C [No 52]	10.1 to 100 nM	101 to 1000 nM	< 10 nM	> 1000 nM			
CO[C@@H]1[C@H](OC(=O)N2CC=C(B(O)O)CC2)CC[C@]2(CO2)[C@H]1[C@@]1(C)O[C@@H]1CC=C(C)C [No 53]	101 to 1000 nM	> 1000 nM	< 10 nM	> 1000 nM			
CO[C@@H]1[C@H](OC(=O)N(C)c2cc(B(O)O)c3occc3c2)CC[C@]2(CO2)[C@H]1[C@@]1(C)O[C@@H]1CC=C(C)C [No 54]	101 to 1000 nM	> 1000 nM	< 10 nM	> 1000 nM			
CO[C@@H]1[C@H](OC(=O)NCc2ccc(B(O)O)o2)CC[C@]2(CO2)[C@H]1[C@@]1(C)O[C@@H]1CC=C(C)C [No 55]	101 to 1000 nM	> 1000 nM	< 10 nM	> 1000 nM			
CO[C@@H]1[C@H](OC(=O)N2CCc3cc(B(O)O)ccc32)CC[C@]2(CO2)[C@H]1[C@@]1(C)O[C@@H]1CC=C(C)C [No 58]	101 to 1000 nM	> 1000 nM	< 10 nM	> 1000 nM			
CO[C@@H]1[C@H](OC(=O)NCCCB(O)O)CC[C@]2(CO2)[C@H]1[C@@]1(C)O[C@@H]1CC=C(C)C [No 59]	> 1000 nM	> 1000 nM	< 10 nM	> 1000 nM			
CO[C@@H]1[C@H](OC(=O)N2CCCC2B(O)O)CC[C@]2(CO2)[C@H]1[C@@]1(C)O[C@@H]1CC=C(C)C (stereo partly drawn) [No 60]	10.1 to 100 nM	> 1000 nM	< 10 nM	> 1000 nM			
CO[C@@H]1[C@H](OC(=O)Nc2ccc(B(O)O)c(C(C)C)c2)CC[C@]2(CO2)[C@H]1[C@@]1(C)O[C@@H]1CC=C(C)C [No 62]	101 to 1000 nM	> 1000 nM	< 10 nM	> 1000 nM			
CO[C@@H]1[C@H](OC(=O)NCCB(O)O)CC[C@]2(CO2)[C@H]1[C@@]1(C)O[C@@H]1CC=C(C)C [No 63]	10.1 to 100 nM	101 to 1000 nM	< 10 nM	101 to 1000 nM			
CO[C@@H]1[C@H](OC(=O)Nc2ccc(Cl)c(B(O)O)c2F)CC[C@]2(CO2)[C@H]1[C@@]1(C)O[C@@H]1CC=C(C)C [No 64]			< 10 nM		101 to 1000 nM	> 1000 nM	> 1000 nM
